From US7495104B2, “Quinoline or quinazoline derivatives inhibiting auto-phosphorylation of fibroblast growth factor receptors” (Kirin Beer Kabushiki Kaisha, priority 2001, dated 2009)

Each compound was assayed against Bek (Homo sapiens, UniProt P21802) (assay: Inhibitory activity against Bek-autophosphorylation using ELISA method in OCUM-2MD3 cells). Conditions: 1 hr with compound, read-out: IC50 (concentration necessary for inhibiting 50% of Bek-phosphorylation).
Assay type: cell-based
Summary of the method: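 OCUM-2MD3 human scirrhous gastric cancer cells in 0.1% FCS were exposed to compound for 1 hr at 37° C, then lysed. Phospho-tyrosine proteins were captured with anti-phosphotyrosine antibody, probed with anti-Bek antibody and peroxidase read-out (A450). Positive control (1000 nM) set 0%, untreated 100%; IC50 from multi-level dilutions.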

Bek, sequence (P21802 431-767 limits assumed): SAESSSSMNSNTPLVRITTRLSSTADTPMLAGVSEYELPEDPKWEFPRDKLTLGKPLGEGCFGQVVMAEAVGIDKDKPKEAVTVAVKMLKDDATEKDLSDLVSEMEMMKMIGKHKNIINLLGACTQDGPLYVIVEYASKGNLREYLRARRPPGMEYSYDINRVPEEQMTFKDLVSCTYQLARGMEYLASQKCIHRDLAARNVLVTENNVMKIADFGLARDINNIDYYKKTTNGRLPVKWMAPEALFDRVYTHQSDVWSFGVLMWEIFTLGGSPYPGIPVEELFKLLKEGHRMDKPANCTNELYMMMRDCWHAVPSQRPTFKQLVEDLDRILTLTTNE

Row | Compound | IC50 [nM]
1 | COc1cc2c(Oc3ccc(NC(=O)NCCC(C)(C)C)c(Cl)c3)ccnc2cc1OCCN1CCC(O)CC1 [Compound 274, 1-(2-Chloro-4-{7-[2-(4-hydroxy-piperidin-1-yl)-ethoxy]-6-methoxy-quinolin-4-yloxy}-phenyl)-3-(3,3-dimethyl-butyl)-urea] | 27.8
2 | COc1cc2c(Oc3ccc(NC(=O)NCCC(C)(C)C)c(Cl)c3)ccnc2cc1OCCN1CCC(CO)CC1 [Compound 275, 1-(2-Chloro-4-{7-[2-(4-hydroxymethyl-piperidin-1-yl)-ethoxy]-6-methoxy-quinolin-4-yloxy}-phenyl)-3-(3,3-dimethyl-butyl)-urea] | 31.6
3 | COc1cc2c(Oc3ccc(Nc4ccc(C(C)(C)C)cc4)c(Cl)c3)ccnc2cc1OCCCN1CCC(O)CC1 [Compound 276, 1-(3-{4-[4-(4-Tert-butyl-phenylamino)-3-chloro-phenoxy]-6-methoxy-quinolin-7-yloxy}-propyl)-piperidin-4-ol] | 1130
4 | COc1cc2c(Oc3ccc(Nc4ccc(C(C)(C)C)cc4)c(Cl)c3)ccnc2cc1OCCCN1CCC(CO)CC1 [Compound 277, [1-(3-{4-[4-(4-Tert-butyl-phenylamino)-3-chloro-phenoxy]-6-methoxy-quinolin-7-yloxy}-propyl)-piperidin-4-yl]-methanol] | 617
5 | COc1cc2c(Oc3ccc(Nc4ccc(C(C)(C)C)cc4)c(Cl)c3)ccnc2cc1OCCN1CCC(O)CC1 [Compound 278, 1-(2-{4-[4-(4-Tert-butyl-phenylamino)-3-chloro-phenoxy]-6-methoxy-quinolin-7-yloxy}-ethyl)-piperidin-4-ol] | 1120
6 | COc1cc2c(Oc3ccc(Nc4ccc(C(C)(C)C)cc4)c(Cl)c3)ccnc2cc1OCCN1CCC(CO)CC1 [Compound 279, [1-(2-{4-[4-(4-Tert-butyl-phenylamino)-3-chloro-phenoxy]-6-methoxy-quinolin-7-yloxy}-ethyl)-piperidin-4-yl]-methanol] | 370
7 | COc1cc2c(Oc3ccc(Nc4ccc(C(C)(C)C)cc4)cc3)ccnc2cc1OCCN1CCC(OC)CC1 [Compound 280, (4-Tert-butyl-phenyl)-(4-{6-methoxy-7-[2-(4-methoxy-piperidin-1-yl)-ethoxy]-quinolin-4-yloxy}-phenyl)-amine] | 278
8 | COCC1CCN(CCOc2cc3nccc(Oc4ccc(Nc5ccc(C(C)(C)C)cc5)cc4)c3cc2OC)CC1 [Compound 281, (4-Tert-butyl-phenyl)-(4-{6-methoxy-7-[2-(4-methoxymethyl-piperidin-1-yl)-ethoxy]-quinolin-4-yloxy}-phenyl)-amine] | 244
9 | COCC1CCN(CCCOc2cc3nccc(Oc4ccc(NC(=O)NCCC(C)(C)C)cc4)c3cc2OC)CC1 [Compound 282, 1-(3,3-Dimethyl-butyl)-3-(4-{6-methoxy-7-[3-(4-methoxymethyl-piperidin-1-yl)-propoxy]-quinolin-4-yloxy}-phenyl)-urea] | 31.6
10 | COc1cc2c(Oc3ccc(Nc4ccc(C(C)(C)C)cc4)cc3F)ccnc2cc1OCCN1CCC(CO)CC1 [Compound 283, [1-(2-{4-[4-(4-Tert-butyl-phenylamino)-2-fluoro-phenoxy]-6-methoxy-quinolin-7-yloxy}-ethyl)-piperidin-4-yl]-methanol] | 167
11 | COc1cc2c(Oc3ccc(Nc4ccc(C(C)(C)C)cc4)cc3F)ccnc2cc1OCCN1CCC(O)CC1 [Compound 284, 1-(2-{4-[4-(4-Tert-butyl-phenylamino)-2-fluoro-phenoxy]-6-methoxy-quinolin-7-yloxy}-ethyl)-piperidin-4-ol] | 247
12 | COc1cc2c(Oc3ccc(NC(=O)NCCC(C)(C)C)cc3F)ccnc2cc1OCCCN1CCC(CO)CC1 [Compound 285, 1-(3,3-Dimethyl-butyl)-3-(3-fluoro-4-{7-[3-(4-hydroxymethyl-piperidin-1-yl)-propoxy]-6-methoxy-quinolin-4-yloxy}-phenyl)-urea] | 22.8
13 | COc1cc2c(Oc3ccc(NC(=O)NCCC(C)(C)C)cc3F)ccnc2cc1OCCCN1CCC(O)CC1 [Compound 286, 1-(3,3-Dimethyl-butyl)-3-(3-fluoro-4-{7-[3-(4-hydroxy-piperidin-1-yl)-propoxy]-6-methoxy-quinolin-4-yloxy}-phenyl)-urea] | 17.2
14 | COc1cc2c(Oc3ccc(Nc4ccc(C(C)(C)C)cc4)c(F)c3)ccnc2cc1OCCN1CCC(O)CC1 [Compound 287, 1-(2-{4-[4-(4-Tert-butyl-phenylamino)-3-fluoro-phenoxy]-6-methoxy-quinolin-7-yloxy}-ethyl)-piperidin-4-ol] | 254
15 | COc1cc2c(Oc3ccc(Nc4ccc(C(C)(C)C)cc4)c(F)c3)ccnc2cc1OCCN1CCC(CO)CC1 [Compound 288, [1-(2-{4-[4-(4-Tert-butyl-phenylamino)-3-fluoro-phenoxy]-6-methoxy-quinolin-7-yloxy}-ethyl)-piperidin-4-yl]-methanol] | 110
16 | COc1cc2c(Oc3ccc(Nc4ccc(C(C)(C)C)cc4)c(F)c3)ccnc2cc1OCCCN1CCC(O)CC1 [Compound 289, 1-(3-{4-[4-(4-Tert-butyl-phenylamino)-3-fluoro-phenoxy]-6-methoxy-quinolin-7-yloxy}-propyl)-piperidin-4-ol] | 248
17 | COc1cc2c(Oc3ccc(Nc4ccc(C(C)(C)C)cc4)c(F)c3)ccnc2cc1OCCCN1CCC(CO)CC1 [Compound 290, [1-(3-{4-[4-(4-Tert-butyl-phenylamino)-3-fluoro-phenoxy]-6-methoxy-quinolin-7-yloxy}-propyl)-piperidin-4-yl]-methanol] | 233
18 | COc1cc2c(Oc3ccc(NC(=O)NCCC(C)(C)C)c(Cl)c3)ccnc2cc1OCCN1CCC(CCO)CC1 [Compound 292, 1-[2-Chloro-4-(7-{2-[4-(2-hydroxy-ethyl)-piperidin-1-yl]-ethoxy}-6-methoxy-quinolin-4-yloxy)-phenyl]-3-(3,3-dimethyl-butyl)-urea] | 49.6
19 | COc1cc2c(Oc3ccc(Nc4ccc(C(C)(C)C)cc4)c(Cl)c3)ccnc2cc1OCCN1CCC(CCO)CC1 [Compound 293, 2-[1-(2-{4-[4-(4-Tert-butyl-phenylamino)-3-chloro-phenoxy]-6-methoxy-quinolin-7-yloxy}-ethyl)-piperidin-4-yl]-ethanol] | 2360
20 | COc1cc2c(Oc3ccc(Nc4ccc(C(C)(C)C)cc4)c(Cl)c3)ccnc2cc1OCCCN1CCC(CCO)CC1 [Compound 294, 2-[1-(3-{4-[4-(4-Tert-butyl-phenylamino)-3-chloro-phenoxy]-6-methoxy-quinolin-7-yloxy}-propyl)-piperidin-4-yl]-ethanol] | 1100
21 | COc1cc2c(Oc3ccc(NC(=O)NCCC(C)(C)C)cc3F)ccnc2cc1OCCN1CCC(CO)CC1 [Compound 295, 1-(3,3-Dimethyl-butyl)-3-(3-fluoro-4-{7-[2-(4-hydroxymethyl-piperidin-1-yl)-ethoxy]-6-methoxy-quinolin-4-yloxy}-phenyl)-urea] | 14.4
22 | COc1cc2c(Oc3ccc(NC(=O)NCCC(C)(C)C)cc3F)ccnc2cc1OCCN1CCC(O)CC1 [Compound 296, 1-(3,3-Dimethyl-butyl)-3-(3-fluoro-4-{7-[2-(4-hydroxy-piperidin-1-yl)-ethoxy]-6-methoxy-quinolin-4-yloxy}-phenyl)-urea] | 19.8
23 | COc1cc2c(Oc3ccc(NC(=O)NCCC(C)(C)C)cc3F)ccnc2cc1OCCN1CCC(CCO)CC1 [Compound 297, 1-(3,3-Dimethyl-butyl)-3-[3-fluoro-4-(7-{2-[4-(2-hydroxy-ethyl)-piperidin-1-yl]-ethoxy}-6-methoxy-quinolin-4-yloxy)-phenyl]-urea] | 42.4
24 | COc1cc2c(Oc3ccc(NC(=O)NCCC(C)(C)C)cc3F)ccnc2cc1OCCCN1CCC(CCO)CC1 [Compound 298, 1-(3,3-Dimethyl-butyl)-3-[3-fluoro-4-(7-{3-[4-(2-hydroxy-ethyl)-1-piperidin-1-yl]-propoxy}-6-methoxy-quinolin-4-yloxy)-phenyl]-urea] | 41.7
25 | COc1cc2c(Oc3ccc(NC(=O)NCCC(C)(C)C)c(F)c3)ccnc2cc1OCCN1CCC(O)CC1 [Compound 299, 1-(3,3-Dimethyl-butyl)-3-(2-fluoro-4-{7-[2-(4-hydroxy-piperidin-1-yl)-ethoxy]-6-methoxy-quinolin-4-yloxy}-phenyl)-urea] | 27.4
26 | COc1cc2c(Oc3ccc(NC(=O)NCCC(C)(C)C)c(F)c3)ccnc2cc1OCCN1CCC(CO)CC1 [Compound 300, 1-(3,3-Dimethyl-butyl)-3-(2-fluoro-4-{7-[2-(4-hydroxymethyl-piperidin-1-yl)-ethoxy]-6-methoxy-quinolin-4-yloxy}-phenyl)-urea] | 22.7
27 | COc1cc2c(Oc3ccc(NC(=O)NCCC(C)(C)C)c(F)c3)ccnc2cc1OCCN1CCC(CCO)CC1 [Compound 301, 1-(3,3-Dimethyl-butyl)-3-[2-fluoro-4-(7-{2-[4-(2-hydroxy-ethyl)-piperidin-1-yl]-ethoxy}-6-methoxy-quinolin-4-yloxy)-phenyl]-urea] | 38.4
28 | COc1cc2c(Oc3ccc(NC(=O)NCCC(C)(C)C)c(F)c3)ccnc2cc1OCCCN1CCC(O)CC1 [Compound 302, 1-(3,3-Dimethyl-butyl)-3-(2-fluoro-4-{7-[3-(4-hydroxy-piperidin-1-yl)-propoxy]-6-methoxy-quinolin-4-yloxy}-phenyl)-urea] | 26.6
29 | COc1cc2c(Oc3ccc(NC(=O)NCCC(C)(C)C)c(F)c3)ccnc2cc1OCCCN1CCC(CO)CC1 [Compound 303, 1-(3,3-Dimethyl-butyl)-3-(2-fluoro-4-{7-[3-(4-hydroxymethyl-piperidin-1-yl)-propoxy]-6-methoxy-quinolin-4-yloxy}-phenyl)-urea] | 22
30 | COc1cc2c(Oc3ccc(NC(=O)NCCC(C)(C)C)c(F)c3)ccnc2cc1OCCCN1CCC(CCO)CC1 [Compound 304, 1-(3,3-Dimethyl-butyl)-3-[2-fluoro-4-(7-{3-[4-(2-hydroxy-ethyl)-piperidin-1-yl]-propoxy}-6-methoxy-quinolin-4-yloxy)-phenyl]-urea] | 31.2
